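Grown in 96-well plates, cells were treated for 48 hours with each compound at five concentrations. Insufficient inhibition: endpoint recorded as highest concentration tested. GI50 marks 50% less growth. At the TGI there is no net growth.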 Bounds are passed on as bounds.

Test systems include U251 CNS; COLO 205 colon; MOLT-4 leukemia; M14 melanoma; UACC-257 melanoma; HOP-92 NSCLC; K-562 leukemia; SK-OV-3 ovarian; MDA-MB-231 breast; SK-MEL-28 melanoma.
Assay in all cases: growth of human tumour cells (NCI), 48 h

For `N#Cc1ccccc1C#C/C=C\C#Cc1ccccc1N`, the GI50 is 4.16 µM in the assay on U251 CNS; 4.8 µM in the assay with COLO 205 colon; 3.68 µM in the assay on MOLT-4 leukemia; 243 nM with M14 melanoma; 2450 nM in the assay with HOP-92 NSCLC; 4.12 µM in the assay with K-562 leukemia. Further, the GI50 with SK-OV-3 ovarian was 3.22 µM; in the assay on MDA-MB-231 breast it was 2130 nM; with SK-MEL-28 melanoma, 9.78 µM. In addition, the TGI in the assay on U251 CNS was greater than 42.5 µM; with COLO 205 colon it was greater than 100 µM; in the assay with MOLT-4 leukemia, greater than 100 µM; in the assay on M14 melanoma it was 11.3 µM; in the assay on UACC-257 melanoma it was greater than 22.8 µM; in the assay with HOP-92 NSCLC, greater than 78.2 µM. The TGI was greater than 100 µM with K-562 leukemia, greater than 100 µM in the assay on SK-OV-3 ovarian, 8.37 µM in the assay with MDA-MB-231 breast and greater than 74 µM in the assay on SK-MEL-28 melanoma.
For `Cc1ccc(OCC2=NC3S/C(=C/c4ccc([N+](=O)[O-])o4)C(=O)N3N2)cc1` (centres undefined), the TGI in the assay with U251 CNS worked out at 29.5 µM; with COLO 205 colon it was 11.6 µM; in the assay on MOLT-4 leukemia, 6.94 µM; with M14 melanoma, 23.6 µM; in the assay with UACC-257 melanoma it was 25.5 µM; in the assay on HOP-92 NSCLC, 8.8 µM. Also, the TGI in the assay on K-562 leukemia came to 3.98 µM; in the assay with SK-OV-3 ovarian it was 29.9 µM; in the assay on MDA-MB-231 breast, 26.6 µM; in the assay on SK-MEL-28 melanoma, 30.5 µM.
For the molecule `Cc1ccc2nc(-c3ccc(NC(=O)c4ccc(N)cc4)c(S(=O)(=O)O)c3)sc2c1`, the TGI in the assay with U251 CNS, with COLO 205 colon, with MOLT-4 leukemia, in the assay on M14 melanoma, with UACC-257 melanoma and with HOP-92 NSCLC was greater than 100 µM throughout. Further, the TGI in the assay on K-562 leukemia, in the assay on SK-OV-3 ovarian, in the assay on MDA-MB-231 breast and with SK-MEL-28 melanoma was greater than 100 µM in each case.
For the molecule `CCN1CCN(c2nc3ccccc3nc2C(=O)c2ccc(OC)c(OC)c2)CC1`, the TGI in the assay with U251 CNS turned out to be 30.2 µM; in the assay on COLO 205 colon it was 2.91 µM; in the assay on MOLT-4 leukemia, 30.5 µM; in the assay with M14 melanoma it was 31.3 µM; with UACC-257 melanoma, 46.4 µM; in the assay on HOP-92 NSCLC it was 70.2 µM. Besides, the TGI turned out to be 34.1 µM in the assay on K-562 leukemia, 24.5 µM in the assay on SK-OV-3 ovarian, 32 µM in the assay with MDA-MB-231 breast and 27.3 µM in the assay with SK-MEL-28 melanoma.

Values taken from PubChem BioAssay (NCI).
